Assay results published in patent US8853227B2, “Methotrexate adjuvants to reduce toxicity and methods for using the same” (Tosk, Incorporated, priority 2008, dated 2014).

What was measured:
[1] = test system: UPase knockout (19519) Drosophila melanogaster; test: Fly Study II, MTX lethality in UPase knockout flies; format: in vivo
Method: (§1) Embryos of UPase knockout (19519) Drosophila melanogaster were orally exposed to a dose range of MTX doses in food admix. Embryos of Wild-type (Oregon-R) were orally exposed to the same dose range of MTX in presence and absence of 0.04 mg TK-112690. Scoring was based on life or death 15 days after initiation of MTX exposure. […] Wild-type D. melanogaster are sensitive to lethal effects of 0.1 mg MTX.
(§2) The aim of this study was to evaluate the lethal effects of a range (0.001, 0.01, 0.05, 0.1, 0.2, 0.4 mg) of doses of orally fed MTX in wild-type (Ore-R) and UPase mutant Drosophila melanogaster. Embryos of UPase knockout (19519) Drosophila melanogaster were orally exposed to a dose range of MTX (0.001, 0.01, 0.05, 0.1, 0.2, 0.4 mg) in food admix. Embryos of Wild-type (Oregon-R) were orally exposed to the same dose range of MTX in presence and absence of 0.04 mg TK-112690. Scoring was based on life or death 15 days after initiation of MTX exposure.

Drosophila melanogaster = test: Fly Study I (protection from MTX-induced lethality); format: in vivo; conditions: for Flies Alive (Number): Fly Study I method, test compound + MTX (MTX Alone: no adjuvant), Table 3
Method: In this study, Drosophila melanogaster eggs (50 eggs per vial) were treated with either 0.005 mg TK-112690+0.4 mg MTX (Group 1), 0.01 mg TK-112690+0.4 mg MTX (Group 2), 0.04 mg TK-112690+0.4 mg MTX (Group 3), 0.1 mg TK-112690+0.4 mg MTX (Group 4), 0.4 mg MTX alone (Group 5) or saline blank (Group 6). Two vials of eggs for each dose group were evaluated for viability (viable flies plus pupae).
The efficacy of cancer chemotherapy can be improved if agents are available to reduce the adverse events associated with treatment with cytotoxic agents. To this end, Drosophila melanogaster (commonly know as the fruit fly) is an ideal organism to screen chemical compounds for such side-effect-reducing agents. This study is aimed at finding a dose of a 2,2′-anhydropyrimidine test article that protects against MTX-induced lethality in insects.
Increasing amounts of a 2,2′-anhydropyrimidine test article (typically 0.03 to 0.1 mg) are mixed in an aqueous solution with 0.3 (or 0.4) mg MTX. Four milliliters (mL) of a 2,2′-anhydropyrimidine test article+MTX solutions are added to an appropriate amount of instant fly medium. Fruit fly eggs are added to a 2,2′-anhydropyrimidine test article+MTX treated medium and incubated for up to 31 days. After the 31 day incubation, each assay is scored by the number of mature fly and pupae per vial.
The assays are set up in clear sterile polystyrene narrow diameter vials from Applied Scientific (Hampton, N.H.). Vials are stored in trays and incubated in a darkened 25° C. incubator.
Reagents and materials used are: 50 mg/mL MTX in H2O (pH 8), 20 mg/mL of the 2,2′-anhydropyrimidine test article in H2O, water, sterile polystyrene narrow diameter vials from Applied Scientific, Instant Drosophila Food Medium, Oregon-R Drosophila melanogaster, 25° C. incubator, and 15 mL polystyrene conical tubes
Each assay is performed in a separate fly vial. Increasing amounts of a 2,2′-anhydropyrimidine (0.005 to 1.0 mg) are tested for MTX side-effect-reduction on fly eggs. Amounts of the 2,2′-anhydropyrimidine test article are drawn from a 20 mg/mL stock solution dissolved in water. Nine mL of the 2,2′-anhydropyrimidine+0.3 (or 0.4) mg MTX solutions are pre-mixed with water in a 15 mL conical tube. Duplicate assays receive 4 mL of the 2,2′-anhydropyrimidine test article+0.3 (or 0.4) mg MTX solutions. Pre-measured amounts of instant drosophila medium are added to each assay to achieve optimal hydration level. Controls are (1) 4 mL water alone and (2) 0.3 (or 0.4) mg MTX alone. Precisely 50 fly eggs aged for ˜18 hours are added to each assay. Assays are capped with a fitted plug and incubated for 30 days in a darkened 25° C. incubator. Assays are scored by the number of dead pupae or adult flies per vial.

[2] = test system: Wild-type (Oregon-R) Drosophila melanogaster; test: Fly Study II, MTX lethality in wild-type flies; format: in vivo
Method: as §1, §2

[3] = Mouse Study II (protection from loss of mucosal permeability, oral iodixanol in plasma); format: in vivo, C57BI/6 female mice; conditions: day 7
Method: C57BI/6 female mice (n=7) were treated intraperitoneal (ip) with 100 mg/kg MTX on days 2, 3 and 4 with and without 60 mg/kg TK-112690 (ip) three hours before, and after, MTX injections. On day 7, mucosal barrier injury was estimated by measuring plasma concentrations of orally administered iodixanol determined by HPLC using UV detection (Boxplots with minimum and maximum values (black lines). Orally administered iodixanol is not absorbed absent an increase in mucosal permeability. Group 1=saline control, Group 2=MTX and Group 3=MTX+TK-112690.
The aim of this study was to evaluate the ability of a representative a 2,2′-anhydropyrimidine test article to mitigate MTX-induced loss of mucosal permeability. C57BI/6 female mice (n=7) were treated (ip) with 100 mg/kg MTX on days 2, 3 and 4 with and without 60 mg/kg TK-112690 (ip) three hours before, and after, MTX injections. On day 7, mucosal barrier injury was estimated by measuring plasma concentrations of orally administered iodixanol determined by HPLC using UV detection. Orally administered iodixanol is not absorbed absent an increase in mucosal permeability.

Row | Structure (SMILES) | sensitivity of UPase knockout flies to lethal effects of MTX ([1]; MTX 0.001-0.4 mg oral, 15 days) | effect of MTX on lethality in the flies (Drosophila melanogaster; 0.4 mg MTX alone vs saline, p<0.01) | Flies Alive (Number) (Drosophila melanogaster) | MTX dose lethal to wild-type flies ([2]; oral in food admix, 15 days after initiation of MTX exposure) [mg] | mucosal barrier injury (increased plasma iodixanol) ([3]; 100 mg/kg MTX ip on Days 2, 3 and 4) | added protection from methotrexate toxicities by TK-112690 in UPase mutant flies ([1]; UPase mutant flies, dose range of methotrexate) | protection from MTX lethality in flies (viable flies plus pupae) (Drosophila melanogaster; 0.005 to 0.1 mg TK-112690 + 0.4 mg MTX, p<0.01 vs MTX alone or saline) | sensitivity of wild-type flies to lethal effects of MTX in the presence of TK-112690 ([2]; 0.04 mg TK-112690, MTX 0.001-0.4 mg oral, 15 days) | methotrexate dose from whose lethality TK-112690 protects ([2]; 0.04 mg TK-112690, wild-type flies, 15 days) [mg] | protection from MTX-induced mucosal barrier injury (plasma concentration of orally administered iodixanol) ([3]; 60 mg/kg ip 3 h before and after 100 mg/kg MTX, days 2, 3, 4, p<0.05)
1 | CN(Cc1cnc2nc(N)nc(N)c2n1)c1ccc(C(=O)N[C@@H](CCC(=O)O)C(=O)O)cc1 [MTX, N-[4-[[(2,4-diamino-6-pteridinyl)methyl]methylamino]benzoyl]-L-glutamic acid, reference compound] | resistant to lethal effects | highly significant | 0 | 0.1 | experienced mucosal barrier injury |  |  |  |  | 
2 | Cc1cn2c(nc1=O)O[C@H]1[C@H](O)[C@@H](CO)O[C@H]12 [TK-112690, 2,2′-anhydro-5-methyluridine] |  |  | 8 |  |  | does not provide added protection | highly significant | resistant to the lethal effects | ≤ 0.4 | protected mice from MTX-induced mucosal barrier injury
